Like-named read-outs stand apart in the source and are kept apart here.
Legend:
[1] = system: SARS-CoV-2 (USA-WA1/2020 Isolate); experiment: In vitro inhibition of SARS-CoV-2 in Calu-3 cells (immunostaining assay); type: cell-based
[2] = conventional Topotecan therapy; cited from earlier work
in vitro = conditions: human
[3] = cited from earlier work

Row | Compound | IC50 ([1]; Severe acute respiratory syndrome coronavirus 2, Calu-3) [nM] | dose-limiting toxicity [2] | CC50 (in vitro) [nM] | inhibition of SARS-CoV-2 ([1]; Calu-3 cells, FIG. 1) | IC50 ([1]; Severe acute respiratory syndrome coronavirus 2, Calu-3 cells, 24 h pretreatment, MOI 0.005, 48 h after inoculation, FIG. 1, read-out: IC50 of inhibition of SARS-CoV-2) [nM] | IC50 ([1]; Severe acute respiratory syndrome coronavirus 2, replicate experiments, Calu-3 cells, FIG. 3 and FIG. 4B, read-out: IC50) [nM] | plasma elimination half-life ([3]; in vivo) [h] | time of peak plasma concentrations ([3]; oral administration) [h]
1 | CCC(CC)COC(=O)[C@H](C)N[P@](=O)(OC[C@H]1O[C@@](C#N)(c2ccc3c(N)ncnn23)[C@H](O)[C@@H]1O)Oc1ccccc1 [Remdesivir] | 116 |  |  |  |  |  |  | 
2 | CC[C@@]1(O)C(=O)OCc2c1cc1n(c2=O)Cc2cc3c(CN(C)C)c(O)ccc3nc2-1 [Topotecan] |  | bone marrow suppression | 169 | Complete or near complete inhibition | 35 | 9.36 | 2 to 3 | 1 to 2

— US20250064795A1, “METHODS OF TREATING CORONAVIRUS DISEASE AND COMPOUNDS FOR SAME” (Board of Supervisors of Louisiana State University and …, priority 2021, published 2025)
